Earlier results as cited in US20120149711A1, “PIPERIDINE DERIVATIVES USED AS OREXIN ANTAGONISTS” (Glaxo Group Limited, priority 2009, published 2012).
No end group written: not given here.

System: freely-feeding rats
Details: central administration, 4 hour time period

## orexin-A: ligand for the orexin-1 receptor; an agonist of the orexin receptors (QPLPDCCRQKTCSCRLYELLHGAGNHAAGILTL; ends and bridges not checked; cysteine pairing not given here; UniProt O43612 34-66, looked up)
  increase of food intake over control rats receiving vehicle: approximately four-fold
